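Protocol summary: plate cells (96-well), add compound at 5 concentrations, incubate 48 h, interpolate endpoints linearly. GI50 marks 50% less growth.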 Active and inactive are the calls of the source. No stated cut-off is given here; in the data, active = GI50 up to about 1.1 µM and inactive = higher.
Legend:
Assay in all cases: NCI-60 cell line screen, 48 h
CCRF-CEM = test system: CCRF-CEM
HT-29 = test system: HT-29
MDA-N = test system: MDA-N
IGROV-1 = test system: IGROV-1
A549 = test system: A549
LOX IMVI = test system: LOX IMVI
OVCAR-8 = test system: OVCAR-8
SK-MEL-28 = test system: SK-MEL-28
A498 = test system: A498
BT-549 = test system: BT-549
HCT-116 = test system: HCT-116
SNB-19 = test system: SNB-19
NCI-H23 = test system: NCI-H23
TK-10 = test system: TK-10
HOP-62 = test system: HOP-62
NCI-H522 = test system: NCI-H522
SNB-75 = test system: SNB-75
SN12C = test system: SN12C
NCI/ADR-RES = test system: NCI/ADR-RES
U-251 = test system: U-251

Measured: GI50

Cc1cc(Cl)nc2ccc(Cc3ccc4nc(Cl)cc(C)c4c3)cc12
inactive: CCRF-CEM > 100 µM | HT-29 68.5 µM | MDA-N 47.3 µM | IGROV-1 31.7 µM | A549 47.5 µM | LOX IMVI 56.5 µM | OVCAR-8 28.6 µM | SK-MEL-28 > 100 µM | A498 21 µM | BT-549 42.2 µM | HCT-116 22.8 µM | SNB-19 32.4 µM | NCI-H23 44.6 µM | TK-10 20.7 µM | HOP-62 18.5 µM | NCI-H522 24.2 µM | SNB-75 3.3 µM | SN12C 85.1 µM | NCI/ADR-RES 33.5 µM | U-251 16.2 µM

O=c1c2ccccc2c2ccccc2c(=O)n1-c1cc2c3ccccc3ccc2c2ccccc12
inactive: HT-29 > 100 µM | MDA-N > 100 µM | IGROV-1 > 100 µM | A549 > 100 µM | LOX IMVI > 100 µM | OVCAR-8 > 100 µM | SK-MEL-28 > 100 µM | A498 > 100 µM | BT-549 > 100 µM | HCT-116 > 100 µM | SNB-19 > 100 µM | NCI-H23 > 100 µM | TK-10 > 100 µM | HOP-62 > 100 µM | NCI-H522 > 100 µM | SNB-75 > 100 µM | SN12C 84.5 µM | NCI/ADR-RES > 100 µM | U-251 > 100 µM

Cc1cc(Cl)ccc1OCC(=O)Oc1c(Cl)c(Cl)c(Cl)c(Cl)c1Cl
inactive: HT-29 26.7 µM | MDA-N 26.2 µM | IGROV-1 17.4 µM | A549 25.6 µM | LOX IMVI 22.5 µM | OVCAR-8 26 µM | SK-MEL-28 27.7 µM | A498 25.6 µM | BT-549 35.9 µM | HCT-116 20.8 µM | SNB-19 26.4 µM | NCI-H23 26.4 µM | TK-10 30.3 µM | HOP-62 21.4 µM | NCI-H522 17.9 µM | SNB-75 26.6 µM | SN12C 25.4 µM | NCI/ADR-RES 25.4 µM | U-251 24.4 µM

C=CCn1c(S)nnc1C12CC3CC(CC(C3)C1)C2
inactive: CCRF-CEM 20.1 µM | HT-29 50.1 µM | MDA-N 45.4 µM | IGROV-1 > 100 µM | LOX IMVI 86.5 µM | OVCAR-8 92.9 µM | SK-MEL-28 > 100 µM | A498 > 100 µM | BT-549 50.6 µM | HCT-116 46.1 µM | SNB-19 > 100 µM | NCI-H23 94.4 µM | TK-10 50.7 µM | HOP-62 > 100 µM | NCI-H522 25 µM | SNB-75 > 100 µM | SN12C > 100 µM | NCI/ADR-RES 55.1 µM | U-251 86.9 µM

COc1cccc2c1C(=O)C(=O)c1c-2oc(=O)c2cc(C)cc(OC)c12
inactive: CCRF-CEM 17.5 µM | HT-29 22.6 µM | MDA-N 17.5 µM | IGROV-1 16.7 µM | A549 > 75 µM | LOX IMVI 13.6 µM | OVCAR-8 14.9 µM | SK-MEL-28 53.6 µM | A498 > 75 µM | BT-549 13.5 µM | HCT-116 27.4 µM | SNB-19 37.8 µM | NCI-H23 19.3 µM | TK-10 > 75 µM | HOP-62 15.9 µM | NCI-H522 14.1 µM | SNB-75 22.6 µM | SN12C 53.8 µM | NCI/ADR-RES 15.8 µM | U-251 12.8 µM

O=CCCCCCOCc1ccccc1
inactive: CCRF-CEM 28 µM | HT-29 > 100 µM | MDA-N > 100 µM | IGROV-1 40.7 µM | A549 43.6 µM | LOX IMVI 18.3 µM | OVCAR-8 > 69.8 µM | SK-MEL-28 > 100 µM | A498 > 100 µM | BT-549 > 100 µM | HCT-116 27 µM | SNB-19 > 87.1 µM | NCI-H23 50.7 µM | TK-10 99.5 µM | HOP-62 29.4 µM | NCI-H522 20.7 µM | SNB-75 > 78.2 µM | SN12C 17.7 µM | NCI/ADR-RES > 55.8 µM | U-251 69.5 µM

c1ccc(-c2nnc(SCc3c[nH]c4ccccc34)n2-c2ccccc2)cc1
inactive: CCRF-CEM 25.9 µM | HT-29 8 µM | MDA-N 78 µM | IGROV-1 27.2 µM | A549 34.4 µM | LOX IMVI 34.9 µM | OVCAR-8 30.7 µM | SK-MEL-28 75.3 µM | A498 19.3 µM | BT-549 17.3 µM | HCT-116 35.6 µM | SNB-19 42.1 µM | NCI-H23 41.4 µM | TK-10 22.2 µM | HOP-62 19 µM | NCI-H522 25.9 µM | SNB-75 18.7 µM | SN12C 68.4 µM | NCI/ADR-RES 22.6 µM | U-251 24.2 µM

Source: ChEMBL document CHEMBL1201862, “PubChem BioAssay data set” (2004)
